Results published in patent publication US20090018134A1, “Compounds - 945” (AstraZeneca AB, priority 2007, published 2009).
pIC50: −log10 of the molar value.

Biological target: T1, mTOR (Homo sapiens, UniProt P42345)
T1 construct: FLAG; made in house
Assay: In Vitro mTOR Kinase Assay (Echo), Test (a)(ii)
Type: biochemical
Details: table of enzyme assay Test (a)(ii); read-out: Test (a)(ii) IC50
Method in brief: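 Inhibition of truncated mTOR (1362-2549, FLAG-tagged, purified from stably transfected HEK293 cells) is measured as reduced AlphaScreen signal from a phospho-T389-recognising antibody bound to the biotinylated peptide product. Kinase incubation lasts 2 hours at room temperature. Potency is given as IC50.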

T1 sequence (P42345 1362-2549): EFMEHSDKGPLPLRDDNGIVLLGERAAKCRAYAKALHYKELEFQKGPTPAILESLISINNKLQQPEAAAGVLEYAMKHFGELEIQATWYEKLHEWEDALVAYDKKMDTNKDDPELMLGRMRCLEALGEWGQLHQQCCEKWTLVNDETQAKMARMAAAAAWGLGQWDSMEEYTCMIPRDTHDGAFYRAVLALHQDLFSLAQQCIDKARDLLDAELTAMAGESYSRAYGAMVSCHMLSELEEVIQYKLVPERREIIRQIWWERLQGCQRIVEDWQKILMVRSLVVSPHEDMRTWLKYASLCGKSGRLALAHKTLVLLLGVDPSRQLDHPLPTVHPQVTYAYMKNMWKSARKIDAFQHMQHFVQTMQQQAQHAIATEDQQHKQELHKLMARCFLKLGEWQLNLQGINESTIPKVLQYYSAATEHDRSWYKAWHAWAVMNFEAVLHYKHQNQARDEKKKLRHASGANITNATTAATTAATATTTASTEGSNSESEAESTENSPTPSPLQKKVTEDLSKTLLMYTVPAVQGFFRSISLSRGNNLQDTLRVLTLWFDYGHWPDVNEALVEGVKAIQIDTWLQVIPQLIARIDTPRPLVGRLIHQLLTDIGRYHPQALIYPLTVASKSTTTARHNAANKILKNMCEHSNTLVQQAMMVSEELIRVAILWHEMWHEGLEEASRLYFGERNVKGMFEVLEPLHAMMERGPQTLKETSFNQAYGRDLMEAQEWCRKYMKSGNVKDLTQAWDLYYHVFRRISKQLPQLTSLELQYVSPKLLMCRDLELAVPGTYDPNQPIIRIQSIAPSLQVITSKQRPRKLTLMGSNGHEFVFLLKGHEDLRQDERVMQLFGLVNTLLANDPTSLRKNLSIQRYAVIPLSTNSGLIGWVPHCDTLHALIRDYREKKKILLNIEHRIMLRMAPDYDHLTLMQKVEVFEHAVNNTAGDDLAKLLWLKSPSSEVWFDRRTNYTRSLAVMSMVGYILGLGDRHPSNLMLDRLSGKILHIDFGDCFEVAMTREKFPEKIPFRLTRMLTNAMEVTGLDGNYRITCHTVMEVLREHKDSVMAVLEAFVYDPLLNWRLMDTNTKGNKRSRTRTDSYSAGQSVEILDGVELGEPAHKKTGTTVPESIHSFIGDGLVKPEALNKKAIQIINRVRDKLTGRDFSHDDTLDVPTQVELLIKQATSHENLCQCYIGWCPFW

SMILES	pIC50
C[C@H]1COCCN1c1cc(C2(S(C)(=O)=O)CCCC2)nc(-c2ccc(NC(=O)Nc3cnn(C)c3)nc2)n1 [Example 14r, 1-[5-[4-[(3S)-3-methylmorpholin-4-yl]-6-(1-methylsulfonylcyclopentyl)pyri-midin-2-yl]pyridin-2-yl]-3-(1-methylpyrazol-4-yl)urea]	7.99
C[C@H]1COCCN1c1cc(C2(S(C)(=O)=O)CCCC2)nc(-c2cnc(NC(=O)NC3CC3)nc2)n1 [Example 14s, 3-cyclopropyl-1-[5-[4-[(3S)-3-methylmorpholin-4-yl]-6-(1-methylsulfonylcyclopentyl)pyri-midin-2-yl]pyrimidin-2-yl]urea]	6.91
CNC(=O)Nc1ncc(-c2nc(N3CCOC[C@@H]3C)cc(C3(S(C)(=O)=O)CCCC3)n2)cn1 [Example 14t, 3-methyl-1-[5-[4-[(3S)-3-methylmorpholin-4-yl]-6-(1-methylsulfonylcyclopentyl)pyri-midin-2-yl]pyrimidin-2-yl]urea]	6.71
C[C@H]1COCCN1c1cc(C2(S(C)(=O)=O)CCCC2)nc(-c2cnc(NC(=O)NCCO)nc2)n1 [Example 14u, 3-(2-hydroxyethyl)-1-[5-[4-[(3S)-3-methylmorpholin-4-yl]-6-(1-methylsulfonylcyclopentyl)pyri-midin-2-yl]pyrimidin-2-yl]urea]	6.91
C[C@H]1COCCN1c1cc(C2(S(C)(=O)=O)CCCC2)nc(-c2cnc(NC(=O)Nc3cnn(C)c3)nc2)n1 [Example 14v, 1-[5-[4-[(3S)-3-methylmorpholin-4-yl]-6-(1-methylsulfonylcyclopentyl)pyri-midin-2-yl]pyrimidin-2-yl]-3-(1-methylpyrazol-4-yl)urea]	7.08
C[C@H]1COCCN1c1cc(C2(S(=O)(=O)C3CC3)CC2)nc(-c2cnc(NC(=O)NC3CC3)nc2)n1 [Example 14w, 3-cyclopropyl-1-[5-[4-(1-cyclopropylsulfonylcyclopropyl)-6-[(3S)-3-methylmorpholin-4-yl]pyrimidin-2-yl]pyrimidin-2-yl]urea]	6.68
CNC(=O)Nc1ncc(-c2nc(N3CCOC[C@@H]3C)cc(C3(S(=O)(=O)C4CC4)CC3)n2)cn1 [Example 14x, 1-[5-[4-(1-cyclopropylsulfonylcyclopropyl)-6-[(3S)-3-methylmorpholin-4-yl]pyrimidin-2-yl]pyrimidin-2-yl]-3-methylurea]	6.20
C[C@H]1COCCN1c1cc(C2(S(=O)(=O)C3CC3)CC2)nc(-c2cnc(NC(=O)NCCO)nc2)n1 [Example 14y, 1-[5-[4-(1-cyclopropylsulfonylcyclopropyl)-6-[(3S)-3-methylmorpholin-4-yl]pyrimidin-2-yl]pyrimidin-2-yl]-3-(2-hydroxyethyl)urea]	6.82
C[C@H]1COCCN1c1cc(C2(S(=O)(=O)C3CC3)CC2)nc(-c2cnc(NC(=O)Nc3cnn(C)c3)nc2)n1 [Example 14z, 1-[5-[4-(1-cyclopropylsulfonylcyclopropyl)-6-[(3S)-3-methylmorpholin-4-yl]pyrimidin-2-yl]pyrimidin-2-yl]-3-(1-methylpyrazol-4-yl)urea]	6.77
C[C@H]1COCCN1c1cc(C2(S(=O)(=O)CCO)CC2)nc(-c2ccc(NC(=O)NC3CCC3)cc2)n1 [Example 16a, 3-cyclobutyl-1-[4-[4-[1-(2-hydroxyethylsulfonyl)cyclopropyl]-6-[(3S)-3-methylmorpholin-4-yl]pyrimidin-2-yl]phenyl]urea]	8.00
C[C@H]1COCCN1c1cc(C2(S(=O)(=O)CCO)CC2)nc(-c2ccc(NC(=O)NCCO)cc2)n1 [Example 16b, 3-(2-hydroxyethyl)-1-[4-[4-[1-(2-hydroxyethylsulfonyl)cyclopropyl]-6-[(3S)-3-methylmorpholin-4-yl]pyrimidin-2-yl]phenyl]urea]	8.24
CCCNC(=O)Nc1ccc(-c2nc(N3CCOC[C@@H]3C)cc(C3(S(=O)(=O)CCO)CC3)n2)cc1 [Example 16e, 3-[4-[4-[1-(2-hydroxyethylsulfonyl)cyclopropyl]-6-[(3S)-3-methylmorpholin-4-yl]pyrimidin-2-yl]phenyl]-1-propylurea]	7.67
C[C@H]1COCCN1c1cc(C2(S(=O)(=O)CCO)CC2)nc(-c2ccc(NC(=O)NCCCO)cc2)n1 [Example 16f, 1-[4-[4-[1-(2-hydroxyethylsulfonyl)cyclopropyl]-6-[(3S)-3-methylmorpholin-4-yl]pyrimidin-2-yl]phenyl]-3-(3-hydroxypropyl)urea]	7.67
C[C@H]1COCCN1c1cc(C2(S(=O)(=O)CCO)CC2)nc(-c2ccc(NC(=O)NCCC#N)cc2)n1 [Example 16g, 3-(2-cyanoethyl)-1-[4-[4-[1-(2-hydroxyethylsulfonyl)cyclopropyl]-6-[(3S)-3-methylmorpholin-4-yl]pyrimidin-2-yl]phenyl]urea]	7.75
C[C@H]1COCCN1c1cc(C2(S(=O)(=O)CCO)CC2)nc(-c2ccc(NC(=O)NCc3ncc[nH]3)cc2)n1 [Example 16h, 1-[4-[4-[1-(2-hydroxyethylsulfonyl)cyclopropyl]-6-[(3S)-3-methylmorpholin-4-yl]pyrimidin-2-yl]phenyl]-3-(1H-imidazol-2-ylmethyl)urea]	6.73
C[C@H]1COCCN1c1cc(C2(S(=O)(=O)CCO)CC2)nc(-c2ccc(NC(=O)NC3(CO)CC3)cc2)n1 [Example 16i, 1-[4-[4-[1-(2-hydroxyethylsulfonyl)cyclopropyl]-6-[(3S)-3-methylmorpholin-4-yl]pyrimidin-2-yl]phenyl]-3-[1-(hydroxymethyl)cyclopropyl]urea]	6.07
C[C@H]1COCCN1c1cc(C2(S(=O)(=O)C(C)(C)C)CC2)nc(-c2ccc(NC(=O)Nc3ccccn3)cc2)n1 [Example 18b, 1-[4-[4-(1-tert-butylsulfonylcyclopropyl)-6-[(3S)-3-methylmorpholin-4-yl]pyrimidin-2-yl]phenyl]-3-pyridin-2-ylurea]	7.83
CC(C)CNC(=O)Nc1ccc(-c2nc(N3CCOC[C@@H]3C)cc(C3(S(=O)(=O)C(C)(C)C)CC3)n2)cc1 [Example 18c, 1-[4-[4-(1-tert-butylsulfonylcyclopropyl)-6-[(3S)-3-methylmorpholin-4-yl]pyrimidin-2-yl]phenyl]-3-(2-methylpropyl)urea]	7.49
CC(C)NC(=O)Nc1ccc(-c2nc(N3CCOC[C@@H]3C)cc(C3(S(=O)(=O)C(C)(C)C)CC3)n2)cc1 [Example 18d, 1-[4-[4-(1-tert-butylsulfonylcyclopropyl)-6-[(3S)-3-methylmorpholin-4-yl]pyrimidin-2-yl]phenyl]-3-propan-2-ylurea]	7.82

Stronger by pIC50, values ahead:

pIC50	SMILES
8.81	C[C@H]1COCCN1c1cc(C2(S(=O)(=O)CCO)CC2)nc(-c2ccc(NC(=O)NC3CC3)cc2)n1 [Example 15, 3-Cyclopropyl-1-[4-[4-[1-(2-hydroxyethylsulfonyl)cyclopropyl]-6-[(3S)-3-methylmorpholin-4-yl]pyrimidin-2-yl]phenyl]urea]
9.23	CCNC(=O)Nc1ccc(-c2nc(N3CCOC[C@@H]3C)cc(C3(S(=O)(=O)CCO)CC3)n2)cc1 [Example 15a, 3-ethyl-1-[4-[4-[1-(2-hydroxyethylsulfonyl)cyclopropyl]-6-[(3S)-3-methylmorpholin-4-yl]pyrimidin-2-yl]phenyl]urea]
8.85	CNC(=O)Nc1ccc(-c2nc(N3CCOC[C@@H]3C)cc(C3(S(=O)(=O)CCO)CC3)n2)cc1 [Example 16, 1-[4-[4-[1-(2-Hydroxyethylsulfonyl)cyclopropyl]-6-[(3S)-3-methylmorpholin-4-yl]pyrimidin-2-yl]phenyl]-3-methylurea]
8.80	C[C@H]1COCCN1c1cc(C2(S(=O)(=O)CCO)CC2)nc(-c2ccc(NC(=O)Nc3ncns3)cc2)n1 [Example 16c, 1-[4-[4-[1-(2-hydroxyethylsulfonyl)cyclopropyl]-6-[(3S)-3-methylmorpholin-4-yl]pyrimidin-2-yl]phenyl]-3-(1,2,4-thiadiazol-5-yl)urea]
8.44	C[C@H]1COCCN1c1cc(C2(S(=O)(=O)CCO)CC2)nc(-c2ccc(NC(=O)Nc3cnn(C)c3)cc2)n1 [Example 16d, 1-[4-[4-[1-(2-hydroxyethylsulfonyl)cyclopropyl]-6-[(3S)-3-methylmorpholin-4-yl]pyrimidin-2-yl]phenyl]-3-(1-methylpyrazol-4-yl)urea]
8.94	C[C@H]1COCCN1c1cc(C2(S(=O)(=O)c3cncc(F)c3)CC2)nc(-c2ccc(NC(=O)NCCO)cc2)n1 [Example 17, 1-[4-[4-[1-(5-Fluoropyridin-3-yl)sulfonylcyclopropyl]-6-[(3S)-3-methylmorpholin-4-yl]pyrimidin-2-yl]phenyl]-3-(2-hydroxyethyl)urea]
9.03	CCNC(=O)Nc1ccc(-c2nc(N3CCOC[C@@H]3C)cc(C3(S(=O)(=O)c4cncc(F)c4)CC3)n2)cc1 [Example 17a, 3-ethyl-1-[4-[4-[1-(5-fluoropyridin-3-yl)sulfonylcyclopropyl]-6-[(3S)-3-methylmorpholin-4-yl]pyrimidin-2-yl]phenyl]urea]
9.23	CNC(=O)Nc1ccc(-c2nc(N3CCOC[C@@H]3C)cc(C3(S(=O)(=O)c4cncc(F)c4)CC3)n2)cc1 [Example 17b, 1-[4-[4-[1-(5-fluoropyridin-3-yl)sulfonylcyclopropyl]-6-[(3S)-3-methylmorpholin-4-yl]pyrimidin-2-yl]phenyl]-3-methylurea]
8.75	C[C@H]1COCCN1c1cc(C2(S(=O)(=O)c3cncc(F)c3)CC2)nc(-c2ccc(NC(=O)NC3CC3)cc2)n1 [Example 17c, 3-cyclopropyl-1-[4-[4-[1-(5-fluoropyridin-3-yl)sulfonylcyclopropyl]-6-[(3S)-3-methylmorpholin-4-yl]pyrimidin-2-yl]phenyl]urea]
8.87	C[C@H]1COCCN1c1cc(C2(S(=O)(=O)C(C)(C)C)CC2)nc(-c2ccc(NC(=O)NC3CC3)cc2)n1 [Example 18, 1-[4-[4-(1-tert-Butylsulfonylcyclopropyl)-6-[(3S)-3-methylmorpholin-4-yl]pyrimidin-2-yl]phenyl]-3-cyclopropylurea]
